Structures are written as SMILES.

Consider three molecules from patent US20090215813A1, “HISTONE DEACETYLASE INHIBITORS AS IMMUNOSUPPRESSANTS” (priority 2003, published 2009).

Experiment [1] has as its system Balb/c (H-2d) heart graft in C57BL/6J (H-2b) recipients. The experiment can be described thus: Acute rejection, heterotopic heart transplantation, graft survival. The following applies: versus saline, across dosing schedules. The format is in vivo, mice. As to the method: Balb/c (H-2^d) mice are used as donor animals, and e.g. C57BL/6J (H-2^b) mice as recipients. The heart is removed from the donors according to known procedures and stored in cold saline (4° C.). The recipient animals are anaesthetised with isofluorane. […] Blood vessels are dissected free from the fascia for a length of 3-5 mm, ligating and dividing any small branches. Vessels are occluded, first proximally and then distally. An arteriotomy and venotomy is performed, and lumens are flushed with heparinised physiological saline. […] The distal ligature is removed, then the proximal ligature. The suture lines are checked for leakage. Then the graft is tethered retroabdobminally. The abdomen is flooded with warm saline (37° C.) and the wound is closed. Graft function is monitored daily by palpation of the abdomen. Rejection is concluded when the graft stops beating. Animals are treated with a 100 μL subcutaneous injection of saline or a solution of a HDAI, e.g. the compound of formula (I), e.g. N-hydroxy-3-[4-[[[2-(2-methyl-1H-indol-3-yl)-ethyl]-amino]methyl]phenyl]-2E-2-propenamide in lactate buffer pH 5.5 according to the dosing schedule shown in Table 1 below: […]

For experiment [2], the system named is heart graft, strain combination Lewis and BN. Description: Rat heart transplantation, graft survival and histology. The experiment is classed as in vivo. The following applies: for effect of co-administration: test not named. The text has this:
Rat Heart Transplantation
The strain combination used is Male Lewis (RT1 haplotype) and BN (RT1 haplotype). The animals are anaesthetized using inhalation isofluorane. […] The aorta is ligated and divided distal to the first branch and the brachiocephalic trunk is divided at the first bifurcation. The left pulmonary artery is ligated and divided and the right side divided but left open. All other vessels are dissected free, ligated and divided and the donor heart is removed into iced saline.
The recipient is prepared by dissection and cross-clamping of the infra-renal abdominal aorta and vena cava. The graft is implanted with end-to-side anastomoses, using 10/0 monofilament suture, between the donor brachiocephalic trunk and the recipient aorta and the donor right pulmonary artery to the recipient vena cava. The clamps are removed, the graft tethered retroabdominally, the abdominal contents washed with warm saline and the animal is closed and allowed to recover under a heating lamp. Animals are treated with saline (control); an HDAI compound e.g. a compound of formula (I), e.g. N-hydroxy-3-[4-[[[2-(2-methyl-1H-indol-3-yl)-ethyl]-amino]methyl]phenyl]-2E-2-propenamide (“compound P1”); 40-O-(2-hydroxyethyl)-rapamycin (“compound P2”) prepared according to the methods described in WO 94/09010; FTY720 (“compound P3”) prepared according to Example 28 of WO 94/08943, or combinations of the each as indicated. Graft survival is monitored by daily palpation of the beating donor heart through the abdominal wall. Rejection is considered to be complete when heart beat stops. At that point the animal is euthanized and the transplanted heart is fixed for histology. […] The scale for grading for acute rejection is 1=slight; 2=moderate; 3=marked; 4=severe.

Experiment [3] deals with spleen cells from CBA and BALB/c mice. The experiment can be described thus: Allogeneic two-way mixed lymphocyte reaction (MLR). The experiment is classed as cell-based. Conditions: two-way mouse MLR, 3H-thymidine incorporation after four days, read-out: IC50 value (concentration required for 50% inhibition of proliferation). As to the method:
Cellular Assay: Allogeneic Mixed Lymphocyte Reaction (MLR)
The two-way MLR is performed according to standard procedures (J. Immunol. Methods, 1973, 2, 279 and Meo T. et al., Immunological Methods, New York, Academic Press, 1979, 227-39). Briefly, spleen cells from CBA and BALB/c mice (1.6×10^5 cells from each strain per well in flat bottom tissue culture microtiter plates, 3.2×10^5 in total) are incubated in RPMI medium containing 10% FCS, 100 U/ml penicillin, 100 μg/ml streptomycin (Gibco BRL, Basel, Switzerland), 50 μM 2-mercaptoethanol (Fluka, Buchs, Switzerland) and serially diluted compounds. Seven three-fold dilution steps in duplicates per test compound are performed. After four days of incubation 1 μCi ^3H-thymidine is added. Cells are harvested after an additional five-hour incubation period, and incorporated ^3H-thymidine is determined according to standard procedures. Background values (low control) of the MLR are the proliferation of BALB/c cells alone. Low controls are subtracted from all values. High controls without any sample are taken as 100% proliferation. Percent inhibition by the samples is calculated, and the concentrations required for 50% inhibition (IC50 values) are determined. In this assay, the agents of the invention have IC50 values in the range of 1 nM to 10 μM, preferably from 1 nM to 500 nM.
(Uptake of a labelled nucleoside into DNA is a usual measure of proliferation.)

Turning to `Cc1[nH]c2ccccc2c1CCNCc1ccc(/C=C/C(=O)NO)cc1` [Compound P1, N-hydroxy-3-[4-[[[2-(2-methyl-1H-indol-3-yl)-ethyl]-amino]methyl]phenyl]-2E-2-propenamide], the increases graft survival in experiment [1] is reported as 2-5 times the number of days. For the same molecule, the “Median survival time (MST)” value is recorded as 6 in experiment [2] (0.3 mg/kg/d s.c., rat) and greater than 28 in experiment [2] (1.0 mg/kg/d s.c., rat). Also, the “Survival (days) for each individual graft” value in experiment [2] (1.0 mg/kg/d s.c., rat) is recorded as >28, >28, >28 days. Further, the effect of co-administration entry is “synergistic effect” in experiment [2] (co-administered with a mTOR inhibitor, e.g. 40-O-(2-hydroxyethyl)-rapamycin) and “synergistic effect” in experiment [2] (co-administered with a sphingosine 1-phosphate receptor agonist). Besides, in experiment [3], the IC50 was determined as 9 nM.
As to `CCCCCCCCc1ccc(CCC(N)(CO)CO)cc1` [Compound P3, FTY720, reference compound], the “Median survival time (MST)” value in experiment [2] (0.1 mg/kg/d p.o., rat) is 7.5.
With `CO[C@H]1C[C@@H]2CC[C@@H](C)[C@@](O)(O2)C(=O)C(=O)N2CCCC[C@H]2C(=O)O[C@H]([C@H](C)C[C@@H]2CC[C@@H](OCCO)[C@H](OC)C2)CC(=O)[C@H](C)/C=C(\C)[C@@H](O)[C@@H](OC)C(=O)[C@H](C)C[C@H](C)/C=C/C=C/C=C/1C` [Compound P2, 40-O-(2-hydroxyethyl)-rapamycin, reference compound], the “Median survival time (MST)” value in experiment [2] (0.3 mg/kg/d p.o., rat) was determined as 7.
